Data as given in article PMC11421016, “Biotransformation and Epithelial Toxicity of Prenylated Phenolics from Licorice Roots (Glycyrrhiza spp.) in 3D Apical-Out Mucus-Producing Human Enteroids” (Journal of Agricultural and Food Chemistry, 2024).

How the values were obtained:
[1] = system: human CYP enzymes (i.e., CYP3A4); set-up: method as in PMID 17220245, PMID 28774812, PMID 12019199, PMID 26100226; details: cited from earlier work
[2] = system: human ileal apical-out enteroids; assay: Cell viability by WST-1 assay in apical-out enteroids; type: cell-based; details: 4 h exposure, range 6.25 up to 500 μg mL^–1
Method: Cytotoxicity and effects on cell viability after exposure to glab, licoA, and glycy in apical-out and apical-in enteroids (6.25–500 μg mL^–1) and proliferating Caco-2 cells (3.13–100 μg mL^–1) were determined by LDH leakage (Section 2.6.1) and WST-1 assays (Section 2.6.2), respectively. For this, stock solutions of 50 mg mL^–1 of glab, licoA, and glycy in DMSO were used. […] An overview of the experimental conditions for the exposure experiments with glab, licoA, and glycy is shown in Table S2 (Supporting Information). In brief, apical-out and apical-in enteroids were grown for 7–10 days in OGM (∼200 enteroids per dome), after which the medium was changed to ODM (supplemented with 5 μM DAPT) to initiate enteroid differentiation. To generate apical-out enteroids, MG was removed from apical-in enteroids in OGM at day 7–10, as described in Section 2.3, and suspended in supplemented ODM. After 3 days in ODM, the effects on cytotoxicity and cell viability of glab, licoA, and glycy in apical-out and apical-in enteroids (passages between 3 and 17) were assessed after 4 and 24 h of incubation. For apical-out enteroids in a suspension, enteroids were pelleted by centrifugation (2 min, 200g, RT), after which the ODM was removed and 500 μL of the experimental agent was added. […] Caco-2 cells were grown for 48 h after seeding before experiments (passages 14–19) with proliferating cells and for 21 days after seeding (passages 14–33) with differentiated cells.[17] The medium (DMEM supplemented with FCS) was changed every 2 days. For exposure experiments, Caco-2 cells were incubated with glab, licoA, and glycy in DMEM without FCS, as FCS serves as an exogenous source of LDH.[22]
Effects on cell viability after stimulation by glab, licoA, and glycy were assessed by measuring cleavage of the tetrazolium salt WST-1 to formazan catalyzed by cellular mitochondrial dehydrogenases and analyzed using a WST-1 cell viability kit (PromoKine, Heidelberg, Germany), according to the manufacturer’s instructions. Cell viability was expressed as the percentage of the control cells (enteroids or Caco-2 cells grown in a medium) and was calculated with eq 2. [drawing 2] 2 in which exp. value is the UV absorbance at 450 nm (Tecan Spark or Tecan Infinite 200 Pro) and low control is the spontaneous cleavage of WST-1 to formazan by mitochondrial dehydrogenases in untreated enteroids or Caco-2 cells.

[3] = system: human ileal apical-in enteroids; assay: Cell viability by WST-1 assay in apical-in enteroids; type: cell-based; details: 4 h
Method: Cytotoxicity and effects on cell viability after exposure to glab, licoA, and glycy in apical-out and apical-in enteroids (6.25–500 μg mL^–1) and proliferating Caco-2 cells (3.13–100 μg mL^–1) were determined by LDH leakage (Section 2.6.1) and WST-1 assays (Section 2.6.2), respectively. For this, stock solutions of 50 mg mL^–1 of glab, licoA, and glycy in DMSO were used. […] An overview of the experimental conditions for the exposure experiments with glab, licoA, and glycy is shown in Table S2 (Supporting Information). […] After 3 days in ODM, the effects on cytotoxicity and cell viability of glab, licoA, and glycy in apical-out and apical-in enteroids (passages between 3 and 17) were assessed after 4 and 24 h of incubation. […]
Effects on cell viability after stimulation by glab, licoA, and glycy were assessed by measuring cleavage of the tetrazolium salt WST-1 to formazan catalyzed by cellular mitochondrial dehydrogenases and analyzed using a WST-1 cell viability kit (PromoKine, Heidelberg, Germany), according to the manufacturer’s instructions. Cell viability was expressed as the percentage of the control cells (enteroids or Caco-2 cells grown in a medium) and was calculated with eq 2. […]
For apical-in enteroids, the cleavage of WST-1 to formazan was assessed in the MG. […]

[4] = system: mouse jejunal apical-in enteroids; set-up: method as in PMID 38086658; details: jejunum, cutoff 25%; cited from earlier work
[5] = system: mouse jejunal apical-out enteroids; set-up: method as in PMID 38086658; details: jejunum, cutoff 25%; cited from earlier work
[6] = system: mouse jejunal apical-out enteroids; set-up: method as in PMID 38086658; details: jejunum, cutoff 25%; cited from earlier work; remark: listed apart in the source

Compound | inhibition of human CYP enzymes (i.e., CYP3A4) [1] | cell viability (WST-1), slight decrease, not statistically significant [2] | highest nonreducing viability concentration (WST-1) [3] | highest noncytotoxic concentration [4] | highest noncytotoxic concentration [5] | highest nonreducing viability concentration [6]
C=CC(C)(C)c1cc(/C=C/C(=O)c2ccc(O)cc2)c(OC)cc1O [licochalcone A] | inhibition | approximately 80% | – | – | – | –
CC1(C)C=Cc2c(ccc3c2OC[C@@H](c2ccc(O)cc2O)C3)O1 [glabridin] | inhibition | – | 100 μg mL^–1 | 75 μg mL^–1 | 250 μg mL^–1 | 50 μg mL^–1
COc1c(CC=C(C)C)c(O)cc2oc(=O)c(-c3ccc(O)cc3O)cc12 [glycycoumarin] | inhibition | – | – | – | – | –
